In ChEMBL document CHEMBL4706652, “Synthesis of 4-(3-oxo-3-phenylpropyl)morpholin-4-ium chloride analogues and their inhibitory activities of nitric oxide production in lipopolysaccharide-induced BV2 cells” (Bioorg Med Chem Lett, 2021):
Counter-ions that a name gives are not always drawn.

How the values were obtained:
[1] = Cytotoxicity against LPS-induced […] BV-2 cells assessed as cell viability at 20 uM measured after 24 hrs by MTT assay relative to control; format: cell-based; settings: for viability at 24 h, 20 µM: LPS-induced BV-2 cells, read-out: Activity
[2] = Inhibition of LPS-induced nitric oxide production in […] BV-2 cells at 20 uM measured after 24 hrs by Griess reagent assay relative to control; format: functional, Mus musculus; settings: for inhibition at 20 µM: BV-2, 24 h
[3] = test system: BV-2; experiment: (§1) Inhibition of LPS-induced nitric oxide production in […] BV-2 cells measured after 24 hrs by Griess reagent assay; format: functional, cell-based
[4] = as §1; format: functional, cell-based; settings: BV-2, 24 h
[5] = test system: BV-2; experiment: Inhibition of LPS-induced nitric oxide production in […] BV-2 cells assessed as decrease in iNOS mRNA expression pretreated with LPS for 1 hr and measured after 6 hrs by RT-PCR analysis; format: functional, cell-based; settings: dose 2-20 µM, time 7.0 hrs
[6] = test system: BV-2; experiment: Inhibition of LPS-induced nitric oxide production in […] BV-2 cells assessed as decrease in iNOS protein expression pretreated with LPS for 1 hr and measured after 18 hrs by immunoblot analysis; format: functional, cell-based; settings: dose 2-20 µM, time 19.0 hrs
[7] = Inhibition of LPS-induced nitric oxide production in […] BV-2 cells at 12.5 to 50 uM measured after 24 hrs by Griess reagent assay relative to control; format: functional; settings: dose 12.5-50 µM
[8] = Cytotoxicity against LPS-induced […] BV-2 cells assessed as cell viability at 12.5 to 50 uM measured after 24 hrs by MTT assay; format: cell-based; settings: bv-2, 24 h, dose 12.5-50 µM
[9] = cells; settings: Homo sapiens, BV-2, 24 h, read-out: INH
Description: Inhibition of LPS-induced nitric oxide production in human BV-2 cells at 10 uM measured after 24 hrs by Griess reagent assay relative to control

Row | SMILES | viability at 24 h, 20 µM [1] | inhibition at 20 µM [2] | further results
1 | O=C(CCN1CCOCC1)c1ccc(Cl)cc1 | 100% | 40.3% | 
2 | O=C(CC(=O)N1CCOCC1)c1ccccc1 | 99.7% | 20.1% | 
3 | O=C(CCN1CCOCC1)c1cccc(C(F)(F)F)c1 | 100% | 44.6% | 
4 | O=C(CCN1CCOCC1)c1ccccc1C(F)(F)F | 100% | 78.3% | inhibition [3]: Dose-dependent effect; IC50 [4]: 8.6 µM; inhibition [5]: Dose-dependent effect; inhibition [6]: Dose-dependent effect
5 | O=C(CCN1CCOCC1)c1ccc(O)cc1 | 99% | 26.5% | 
6 | O=C(CCN1CCOCC1)c1ccc(I)cc1 | 89.4% | 41.6% | 
7 | Cc1ccc(C(=O)CCN2CCOCC2)cc1 | 100% | 36% | 
8 | O=C(Cc1ccccc1)CN1CCOCC1 | 100% | 17.4% | 
9 | O=C(CCN1CCOCC1)c1ccc(Br)cc1 | 100% | 41.6% | 
10 | CN(C)c1ccc(C(=O)CCN2CCOCC2)cc1 | 100% | 32.8% | 
11 | Cl.O=C(CCN1CCOCC1)c1ccccc1 |  |  | IC50 [4]: > 50 µM; Activity ([1]; bv-2, 24 h, 20 µM): 96.7%; inhibition (INH) [7]: 49%; inhibition (INH) [2]: 29.3%; Activity [8]: Non-Toxic
12 | O=C(CCN1CCOCC1)c1ccc(C(F)(F)F)cc1 | 96.1% | 50.3% | 
13 | O=C(CN1CCOCC1)C(=O)c1ccccc1 | 100% | 19.2% | 
14 | O=C(CCN1CCOCC1)c1ccccc1 | 99.8% | 31.8% | 
15 | COc1ccc(C(=O)CCN2CCOCC2)cc1 | 100% | 33.3% | 
16 | O=C(CCN1CCOCC1)c1ccc(F)cc1 | 95% | 35.2% | 
17 | O=C(CCN1CCOCC1)c1ccc([N+](=O)[O-])cc1 | 98.3% | 73.1% | 
18 | CNCCC(Oc1ccc(C(F)(F)F)cc1)c1ccccc1 (centres undefined) [FLUOXETINE HYDROCHLORIDE] |  |  | inhibition at 10 µM [9]: 31.2%
19 | Nc1ccc(C(=O)CCN2CCOCC2)cc1 | 100% | 25.2% | 
